Read-outs that look alike come from different tables or passages of the source.

What all share (format): cell-based, human
Assay [1] concerns EPO-induced JAK2 signal pathway. Kind of assay: EPO-induced proliferation of UT-7 cells (JAK2 signal). The settings on record: UT-7 cell proliferation, EPO 10 ng/mL, 72 hours, read-out: Inhibition activity IC50 on EPO-induced JAK2 signal pathway. In a few lines:
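UT-7 cells (15000/well) stimulated with 10 ng/mL human recombinant EPO plus compound at final 0, 100, 1000 or 10000 nM, 72 h at 37° C., 5% CO2. Proliferation by alamarBlue fluorescence (Ex530/Em590); inhibition normalised to no-cytokine/no-compound (0) and EPO-only (100) wells, […] derived from dose-inhibition.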

The subject of assay [2] is IL-2-induced JAK1/JAK3 signal pathway. In words: IL-2-induced proliferation of KHYG-1 cells (JAK1/JAK3 signal). The settings on record: KHYG-1 cell proliferation, IL-2 10 ng/mL, 72 hours, read-out: Inhibition activity IC50 on IL-2-induced JAK1/JAK3 signal pathway. In a few lines:
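KHYG-1 NK lymphoma cells were cultured with IL-2 and test compound at various doses for 72 h at 37 °C and 5% CO2, and proliferation was read with alamarBlue fluorescence. Inhibition was normalized to wells without compound or cytokine (0%) and IL-2 wells without compound (100%), and C50 was derived from the dose-inhibition data.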

In assay [3] the test system is IL-10-induced JAK1/TYK2 signal pathway. In words: IL-10-induced JAK1/TYK2 signal pathway STAT3-Luc reporter gene assay in U2OS cells. The settings on record: U2OS cells, STAT3-Luc reporter, IL-10 10 ng/mL, read-out: Half inhibition dose (IC50) on IL-10-induced JAK1/TYK2 signal pathway. The procedure, abridged: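 U2OS cells co-transfected with IL-10R1-EGFP and STAT3-luciferase reporter plasmids; after 24 h, compound added (0–300 nM) for 6 h before 10 ng/mL human IL-10, then 24 h culture. Luciferase signal normalised to GFP for transfection efficiency; IC50 from inhibition rates.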

Turning to `CCONC(=O)c1cnc(Nc2cc(C)nc(C)n2)cc1Nc1ccc(OC(C)C)cc1N(C)S(C)(=O)=O` [Example 178, 6-((2,6-dimethylpyrimidin-4-yl)amino)-N-ethoxy-4-((4-isopropoxy-2-(N-methylmethanesulfonamido)phenyl)amino)nicotinamide], the IC50 in assay [1] (Homo sapiens, UT7) was above 10 µM; in assay [2] (Homo sapiens), above 10 µM; in assay [3] (Homo sapiens, U2OS), 0.00128 µM.
As for `CCONC(=O)c1cnc(Nc2ccnc(OC)n2)cc1Nc1ccc(C2CC2)cc1N(C)S(C)(=O)=O` [Example 179, 4-((4-cyclopropyl-2-(N-methylmethanesulfonamido)phenyl)amino)-N-ethoxy-6-((2-methoxypyrimidin-4-yl)amino)nicotinamide], the IC50 in assay [1] (Homo sapiens, UT7) is above 10 µM; in assay [2] (Homo sapiens), above 10 µM; in assay [3] (Homo sapiens, U2OS), 0.00131 µM.
`CCONC(=O)c1cnc(Nc2cc(C)nc(C)n2)cc1Nc1ccc(CC)cc1N(C)S(C)(=O)=O` [Example 180]: the IC50 is above 10 µM in assay [1] (Homo sapiens, UT7); above 10 µM in assay [2] (Homo sapiens); 0.00113 µM in assay [3] (Homo sapiens).
As for `C#Cc1cc(N(C)S(C)(=O)=O)c(Nc2cc(Nc3cc(C)nc(C)n3)ncc2C(=O)NOCC)cc1F` [Example 182], the IC50 in assay [1] (Homo sapiens, UT7) is above 10 µM; in assay [2] (Homo sapiens), above 10 µM; in assay [3] (Homo sapiens, U2OS) it was 0.00159 µM.
On to `CCONC(=O)c1cnc(Nc2cc(C)nc(C)n2)cc1Nc1ccc(F)cc1N(C)S(=O)(=O)C1CC1` [Example 183], for which the IC50 in assay [1] (Homo sapiens, UT7) was above 10 µM; in assay [2] (Homo sapiens) it was above 10 µM; in assay [3] (Homo sapiens, U2OS) it was 0.000796 µM.
Consider `CCONC(=O)c1cnc(Nc2cc(C)nc(C)n2)cc1Nc1ccc(C2CC2)cc1N(C)S(=O)(=O)CC` [Example 185], for which the IC50 in assay [1] (Homo sapiens, UT7) is above 10 µM; in assay [2] (Homo sapiens) it was above 10 µM; in assay [3] (Homo sapiens, U2OS), 0.000821 µM.
Turning to `CCONC(=O)c1cnc(Nc2cc(C)nc(C)n2)cc1Nc1ccc(Cl)cc1N(C)S(=O)(=O)CC` [Example 187, 4-((4-chloro-2-(N-methylethylsulfonamido)phenyl)amino)-6-((2,6-dimethylpyrimidin-4-yl)amino)-N-ethoxynicotinamide], the IC50 in assay [1] (Homo sapiens, UT7) is above 10 µM; in assay [2] (Homo sapiens), above 10 µM; in assay [3] (Homo sapiens, U2OS), 0.000906 µM.
Regarding `CCONC(=O)c1cnc(Nc2ccnc(OC)n2)cc1Nc1cc(F)c(C2CC2)cc1N(C)S(C)(=O)=O` [Example 188, 4-((4-cyclopropyl-5-fluoro-2-(N-methylmethanesulfonamido)phenyl)amino)-N-ethoxy-6-((2-methoxypyrimidin-4-yl)amino)nicotinamide], the IC50 in assay [1] (Homo sapiens, UT7) was above 10 µM; in assay [2] (Homo sapiens), above 10 µM; in assay [3] (Homo sapiens, U2OS), 0.00127 µM.
On to `CCONC(=O)c1cnc(Nc2cc(C)nc(C)n2)cc1Nc1ccc(C2CC2)cc1N(C)S(=O)(=O)C1CC1` [Example 189], for which the IC50 in assay [1] (Homo sapiens, UT7) is above 10 µM; in assay [2] (Homo sapiens), above 10 µM; in assay [3] (Homo sapiens, U2OS), 0.000825 µM.
Consider `CCONC(=O)c1cnc(Nc2ccncn2)cc1Nc1ccc(C2CC2)cc1N(C)S(=O)(=O)C1CC1` [Example 190, 4-((4-cyclopropyl-2-(N-methylcyclopropylsulfonamido)phenyl)amino)-N-ethoxy-6-(pyrimidin-4-ylamino)nicotinamide], for which the IC50 was above 10 µM in assay [1] (Homo sapiens, UT7); above 10 µM in assay [2] (Homo sapiens); 0.00273 µM in assay [3] (Homo sapiens, U2OS).
Take `CCONC(=O)c1cnc(Nc2cc(C)nc(C)n2)cc1Nc1cc(F)c(C)cc1N(C)S(C)(=O)=O` [Example 191, 6-((2,6-dimethylpyrimidin-4-yl)amino)-N-ethoxy-4-((5-fluoro-4-methyl-2-(N-methylmethanesulfonamido)phenyl)amino)nicotinamide]: the IC50 was above 10 µM in assay [1] (Homo sapiens, UT7); above 10 µM in assay [2] (Homo sapiens); 0.000653 µM in assay [3] (Homo sapiens, U2OS).
On to `CCONC(=O)c1cnc(Nc2cc(C)nc(C)n2)cc1Nc1ccc(C)c(F)c1N(C)S(C)(=O)=O` [Example 197], for which the IC50 was above 10 µM in assay [1] (Homo sapiens, UT7); above 10 µM in assay [2] (Homo sapiens); 0.000731 µM in assay [3] (Homo sapiens, U2OS).
As to `CCONC(=O)c1cnc(Nc2cc(C)nc(C)n2)cc1Nc1ccc(C)cc1N(C)S(=O)(=O)CC` [Example 203, 6-((2,6-dimethylpyrimidin-4-yl)amino)-N-ethoxy-4-((4-methyl-2-(N-methylethylsulfonamido)phenyl)amino)nicotinamide], the IC50 was above 10 µM in assay [1] (Homo sapiens, UT7); above 10 µM in assay [2] (Homo sapiens); 0.000383 µM in assay [3] (Homo sapiens, U2OS).
`CCONC(=O)c1cnc(Nc2cc(C)nc(C)n2)cc1Nc1ccc(-c2ccnn2C)cc1OC` [Example 207]: the IC50 in assay [1] (Homo sapiens, UT7) was above 10 µM; in assay [2] (Homo sapiens) it was above 10 µM; in assay [3] (Homo sapiens, U2OS), 0.00108 µM.
Take `CCONC(=O)c1cnc(NC(=O)C2CC2)cc1Nc1cccc(-c2ncc(F)cn2)c1OC` [Example 209, 6-(cyclopropylcarboxamido)-N-ethoxy-4-((3-(5-fluoropyrimidin-2-yl)-2-methoxyphenyl)amino)nicotinamide]: the IC50 in assay [1] (Homo sapiens, UT7) was above 10 µM; in assay [2] (Homo sapiens), above 10 µM; in assay [3] (Homo sapiens, U2OS) it was 0.00178 µM.
Take `CCONC(=O)c1cnc(NC(=O)C2CC2)cc1Nc1cc(F)cc(-c2ncc(F)cn2)c1OC` [Example 210, 6-(cyclopropylcarboxamido)-N-ethoxy-4-((5-fluoro-3-(5-fluoropyrimidin-2-yl)-2-methoxyphenyl)amino)nicotinamide]: the IC50 in assay [1] (Homo sapiens, UT7) was above 10 µM; in assay [2] (Homo sapiens), above 10 µM; in assay [3] (Homo sapiens, U2OS), 0.000958 µM.
Regarding `CCONC(=O)c1cnc(Nc2cccc(C)n2)cc1Nc1ccc(C2CC2)cc1N(C)S(C)(=O)=O` [Example 217, 4-((4-cyclopropyl-2-(N-methylmethanesulfonamido)phenyl)amino)-N-ethoxy-6-((6-methylpyridin-2-yl)amino)nicotinamide], the values for the IC50 in assay [1], in assay [2] and in assay [3] were above 10 µM, above 10 µM and 0.00105 µM, respectively.
On to `CCONC(=O)c1cnc(Nc2cc(C)nc(C)n2)cc1Nc1cccc(-c2ncc(Cl)cn2)c1OC` [Example 218, 4-((3-(5-chloropyrimidin-2-yl)-2-methoxyphenyl)amino)-6-((2,6-dimethylpyrimidin-4-yl)amino)-N-ethoxy nicotinamide], for which the IC50 in assay [1] (Homo sapiens, UT7) is above 10 µM; in assay [2] (Homo sapiens), above 10 µM; in assay [3] (Homo sapiens) it was 0.000171 µM.
On to `CCONC(=O)c1cnc(Nc2cccc(C(F)(F)F)n2)cc1Nc1ccc(C2CC2)cc1N(C)S(C)(=O)=O` [Example 220, 4-((4-cyclopropyl-2-(N-methylmethanesulfonamido)phenyl)amino)-N-ethoxy-6-((6-(trifluoromethyl)pyridin-2-yl)amino)nicotinamide], for which the IC50 in assay [1] (Homo sapiens, UT7) is above 10 µM; in assay [2] (Homo sapiens), above 10 µM; in assay [3] (Homo sapiens, U2OS), 0.00132 µM.
Consider `CCONC(=O)c1cnc(Nc2cccc(C)n2)cc1Nc1ccc(-c2ccnn2C)cc1OC` [Example 222, N-ethoxy-4-((2-methoxy-4-(1-methyl-1H-pyrazol-5-yl)phenyl)amino)-6-((6-methylpyridin-2-yl)amino)nicotinamide], for which the IC50 in assay [1] (Homo sapiens, UT7) was above 10 µM; in assay [2] (Homo sapiens), above 10 µM; in assay [3] (Homo sapiens, U2OS), 0.00109 µM.
Regarding `CCONC(=O)c1cnc(Nc2ccc(F)nc2C)cc1Nc1ccc(C2CC2)cc1N(C)S(C)(=O)=O` [Example 223, 4-((4-cyclopropyl-2-(N-methylmethanesulfonamido)phenyl)amino)-N-ethoxy-6-((6-fluoro-2-methylpyridin-3-yl)amino)nicotinamide], the IC50 in assay [1] (Homo sapiens, UT7) was above 10 µM; in assay [2] (Homo sapiens) it was above 10 µM; in assay [3] (Homo sapiens, U2OS) it was 0.000172 µM.
